Results as given in ChEMBL document CHEMBL1201862, “PubChem BioAssay data set” (2004).
Active and inactive are the calls of the source.

How the values were obtained:
[1] = A Cell-Based Confirmatory Screen for Compounds that Inhibit VEEV, TC-83 (8).; assay type: functional
[2] = target: Photoreceptor-specific nuclear receptor (Homo sapiens, UniProt Q9Y5X4); assay type: functional, cell-based;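 note: CHO-S cells with Gal4-NCOR and VP16-NR2E3 two-hybrid luciferase reporter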
[3] = viability loss in HEK293 kidney cells – cell-based, cherry-picks, set 5, cytotoxicity control, dose response (AID 1053117); assay type: functional
[4] = viability loss in A549 lung cancer cells – cell-based, cherry-picks, […], cytotoxicity control, dose response (AID 1053119); assay type: functional
[5] = blockers of FN fibrillogenesis by fibroblasts – AH1F cells, Alexa488-FN fluorescence, cherry-picks, dose response (AID 1035475); assay type: functional, cell-based
[6] = target: T1, Potassium channel subfamily K member 9 (Homo sapiens, UniProt Q9NPC2); assay: TASK3 channel blockers, electrophysiology – cell-based, automated electrophysiology, selectivity assay for TASK1 (KCNK3) inhibitor project, SAR follow-up (AID 652210); assay type: functional
[7] = target: T1, Potassium channel subfamily K member 9; assay: KCNK9 flux blockade, concentration-response – cell-based, FluxOR thallium flux, selectivity assay for TASK1 inhibitor project, SAR follow-up (AID 652211); assay type: functional;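 note: potency is for inhibitors of the channel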
[8] = target: Potassium channel subfamily K member 3 (Rattus norvegicus, UniProt O54912); assay: SAR analysis for the identification of selective inhibitors of the two-pore domain potassium channel TASK1(KCNK3):Automated Electrophysiology.; assay type: functional
[9] = target: Potassium channel subfamily K member 3 (Homo sapiens, UniProt O14649); assay: inhibition of human KCNK3 channel flux – CHO cells, FluxOR thallium flux, SAR follow-up (AID 652212); assay type: functional
[10] = target: Paired box protein Pax-8 (Homo sapiens, UniProt Q06710); assay: PAX8 transcriptional activity inhibition in RMG-I – RMG-I cells, luciferase, cherry-pick, dose response (AID 687027); assay type: functional, cell-based;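 note: luciferase reporter driven by Pax8 target thyroperoxidase promoter measured by SteadyGlo luminescence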
[11] = toxicity toward immortalized ovarian surface epithelium – cell-based, plate reader, dry powder samples, cytotoxicity control for PAX8 inhibitor project, dose response (AID 743045); assay type: functional
[12] = CMV-driven luciferase expression suppression in HEK293 – cell-based, luminescence, dry powder, counter-screen for Pax8 inhibitor project, dose response (AID 743020); assay type: functional
[13] = OVCAR-3 cell viability loss – plate reader, dry powder samples, PAX8 inhibitor project, dose response (AID 743044); assay type: functional, cell-based
[14] = OVCAR8 cell viability loss – plate reader, dry powder samples, PAX8 project, dose response (AID 743197); assay type: functional, cell-based; details: OVCAR-8
[15] = target: Metabotropic glutamate receptor 5 (Rattus norvegicus, UniProt P31424); assay: Identification of a glycine sulfonamide based non-MPEP site positive allosteric potentiator (PAM) of mGlu5 (calcium_assay).; assay type: functional
[16] = viability loss in HepG2 hepatoma cells – cell-based, ATP luminescence, cherry-pick, activator set 2, cytotoxicity control, dose response (AID 1053143); assay type: functional
[17] = target: Galanin receptor type 3 (Homo sapiens, UniProt O60755); assay: Fluorescence-based cell-based primary high throughput dose response assay to identify antagonists of the Galanin Receptor 3 (GalR3).; assay type: functional
[18] = cells; assay type: functional, cell-based; details: HEK-CNG
[19] = target: COUP transcription factor 2 (Homo sapiens, UniProt P24468); assay: Luminescence-based cell-based high throughput dose response assay to identify inhibitors of COUP-TFII (NR2F2).; assay type: functional;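 note: HEK293 cells transiently cotransfected with COUP-TFII expression vector and reporter; luciferase reporter luminescence driven by COUP-TFII from the pX2-168 reporter plasmid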
[20] = target: SUMO-activating enzyme (Homo sapiens, UniProt Q9UBT2); assay: blockers of UBC9-mediated SUMO conjugation – biochemical, AlphaScreen, SUMOylation inhibitor project, confirmation (AID 2018); assay type: functional
[21] = cells; details: A549

T1 sequence (Q9NPC2 whole entry): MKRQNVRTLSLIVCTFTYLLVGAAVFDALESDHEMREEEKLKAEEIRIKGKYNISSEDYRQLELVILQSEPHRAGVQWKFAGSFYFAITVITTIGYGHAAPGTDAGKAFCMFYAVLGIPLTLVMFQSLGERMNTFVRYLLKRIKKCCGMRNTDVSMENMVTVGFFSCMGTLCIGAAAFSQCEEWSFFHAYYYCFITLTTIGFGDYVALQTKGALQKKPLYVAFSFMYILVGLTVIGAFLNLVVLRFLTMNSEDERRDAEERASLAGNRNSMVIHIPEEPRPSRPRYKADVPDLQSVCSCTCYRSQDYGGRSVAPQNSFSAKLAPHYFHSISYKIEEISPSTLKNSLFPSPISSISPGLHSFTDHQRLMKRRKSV
Metabotropic glutamate receptor 5, sequence (P31424 whole entry): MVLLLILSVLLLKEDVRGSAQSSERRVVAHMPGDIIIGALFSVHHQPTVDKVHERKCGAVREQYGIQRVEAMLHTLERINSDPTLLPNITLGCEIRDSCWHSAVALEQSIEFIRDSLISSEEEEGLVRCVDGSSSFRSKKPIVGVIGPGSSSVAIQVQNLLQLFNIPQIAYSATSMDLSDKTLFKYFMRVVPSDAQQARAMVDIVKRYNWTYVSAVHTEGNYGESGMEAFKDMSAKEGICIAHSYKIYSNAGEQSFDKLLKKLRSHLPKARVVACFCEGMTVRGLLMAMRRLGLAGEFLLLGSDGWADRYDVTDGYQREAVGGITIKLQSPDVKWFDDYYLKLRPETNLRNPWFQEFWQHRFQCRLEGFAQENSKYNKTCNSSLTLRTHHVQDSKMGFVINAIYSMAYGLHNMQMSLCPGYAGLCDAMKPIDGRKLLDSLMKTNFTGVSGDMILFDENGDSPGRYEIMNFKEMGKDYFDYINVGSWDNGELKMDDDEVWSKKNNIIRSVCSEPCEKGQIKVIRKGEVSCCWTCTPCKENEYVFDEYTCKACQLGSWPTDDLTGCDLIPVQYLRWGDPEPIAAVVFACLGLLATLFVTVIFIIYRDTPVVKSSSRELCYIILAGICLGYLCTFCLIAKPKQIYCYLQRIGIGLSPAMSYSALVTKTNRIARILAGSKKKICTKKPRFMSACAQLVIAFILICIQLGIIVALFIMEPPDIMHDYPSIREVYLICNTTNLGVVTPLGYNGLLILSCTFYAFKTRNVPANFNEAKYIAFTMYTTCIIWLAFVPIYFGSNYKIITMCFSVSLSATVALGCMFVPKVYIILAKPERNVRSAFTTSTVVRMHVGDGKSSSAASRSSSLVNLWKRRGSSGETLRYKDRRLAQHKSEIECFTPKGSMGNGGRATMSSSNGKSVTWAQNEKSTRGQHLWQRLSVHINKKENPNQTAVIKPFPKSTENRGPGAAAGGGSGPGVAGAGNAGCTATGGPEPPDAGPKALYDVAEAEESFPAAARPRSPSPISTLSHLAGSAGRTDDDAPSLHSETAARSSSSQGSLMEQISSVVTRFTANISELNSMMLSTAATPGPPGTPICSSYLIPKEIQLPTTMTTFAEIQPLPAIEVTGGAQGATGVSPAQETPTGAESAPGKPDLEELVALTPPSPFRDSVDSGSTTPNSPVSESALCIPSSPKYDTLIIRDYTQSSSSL
Potassium channel subfamily K member 3 (Homo sapiens, UniProt O14649), sequence (O14649 whole entry): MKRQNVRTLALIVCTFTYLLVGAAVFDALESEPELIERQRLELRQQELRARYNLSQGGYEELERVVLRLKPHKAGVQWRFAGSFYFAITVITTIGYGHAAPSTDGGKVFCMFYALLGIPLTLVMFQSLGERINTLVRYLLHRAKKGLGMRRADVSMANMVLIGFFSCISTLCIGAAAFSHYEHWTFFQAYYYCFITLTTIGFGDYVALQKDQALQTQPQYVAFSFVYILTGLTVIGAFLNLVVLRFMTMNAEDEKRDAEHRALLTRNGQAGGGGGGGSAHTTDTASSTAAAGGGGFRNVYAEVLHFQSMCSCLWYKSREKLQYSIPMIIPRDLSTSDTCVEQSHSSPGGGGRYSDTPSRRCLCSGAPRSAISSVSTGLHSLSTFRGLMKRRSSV
Photoreceptor-specific nuclear receptor, sequence (Q9Y5X4 whole entry, the tested form may be a part): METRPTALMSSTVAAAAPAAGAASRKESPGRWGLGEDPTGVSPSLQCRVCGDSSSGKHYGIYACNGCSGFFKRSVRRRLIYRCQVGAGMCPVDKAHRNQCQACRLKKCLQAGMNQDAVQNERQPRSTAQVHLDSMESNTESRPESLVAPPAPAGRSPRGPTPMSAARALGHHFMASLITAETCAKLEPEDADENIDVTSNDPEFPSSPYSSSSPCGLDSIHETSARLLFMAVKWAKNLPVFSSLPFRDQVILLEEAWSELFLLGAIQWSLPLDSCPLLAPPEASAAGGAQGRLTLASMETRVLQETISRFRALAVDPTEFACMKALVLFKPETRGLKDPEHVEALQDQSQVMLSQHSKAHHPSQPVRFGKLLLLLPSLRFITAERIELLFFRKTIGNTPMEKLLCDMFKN
Galanin receptor type 3, sequence (O60755 whole entry): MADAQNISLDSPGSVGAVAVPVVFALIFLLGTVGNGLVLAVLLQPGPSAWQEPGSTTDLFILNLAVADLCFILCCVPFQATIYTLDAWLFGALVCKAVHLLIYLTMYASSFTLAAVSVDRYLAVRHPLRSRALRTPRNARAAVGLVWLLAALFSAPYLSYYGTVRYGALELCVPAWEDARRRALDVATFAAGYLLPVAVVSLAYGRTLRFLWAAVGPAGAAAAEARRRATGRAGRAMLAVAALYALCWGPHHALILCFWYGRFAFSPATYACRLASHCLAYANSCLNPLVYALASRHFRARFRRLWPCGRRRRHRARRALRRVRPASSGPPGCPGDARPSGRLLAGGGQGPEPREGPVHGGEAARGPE
COUP transcription factor 2, sequence (P24468 whole entry): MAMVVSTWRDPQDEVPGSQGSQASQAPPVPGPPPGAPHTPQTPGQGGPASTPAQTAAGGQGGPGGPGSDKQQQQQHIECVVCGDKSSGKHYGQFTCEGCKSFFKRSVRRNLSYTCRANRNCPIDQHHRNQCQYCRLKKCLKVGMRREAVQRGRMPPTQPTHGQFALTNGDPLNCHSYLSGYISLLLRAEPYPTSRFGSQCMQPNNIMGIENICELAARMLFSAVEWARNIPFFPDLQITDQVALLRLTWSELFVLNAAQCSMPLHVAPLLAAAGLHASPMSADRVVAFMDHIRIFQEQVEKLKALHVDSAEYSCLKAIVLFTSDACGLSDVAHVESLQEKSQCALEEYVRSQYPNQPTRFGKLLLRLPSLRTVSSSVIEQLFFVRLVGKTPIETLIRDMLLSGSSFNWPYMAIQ
SUMO-activating enzyme, sequence (Q9UBE0 whole entry): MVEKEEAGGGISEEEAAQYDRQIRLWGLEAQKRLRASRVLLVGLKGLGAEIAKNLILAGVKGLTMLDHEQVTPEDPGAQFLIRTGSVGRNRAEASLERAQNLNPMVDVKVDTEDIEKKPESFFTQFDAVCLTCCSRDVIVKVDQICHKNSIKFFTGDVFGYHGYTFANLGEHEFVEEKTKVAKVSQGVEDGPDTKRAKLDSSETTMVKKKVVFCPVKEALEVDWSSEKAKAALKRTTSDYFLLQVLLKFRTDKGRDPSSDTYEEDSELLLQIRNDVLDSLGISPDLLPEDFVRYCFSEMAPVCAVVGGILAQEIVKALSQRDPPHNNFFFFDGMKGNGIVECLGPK
SUMO-activating enzyme, sequence (Q9UBT2 whole entry): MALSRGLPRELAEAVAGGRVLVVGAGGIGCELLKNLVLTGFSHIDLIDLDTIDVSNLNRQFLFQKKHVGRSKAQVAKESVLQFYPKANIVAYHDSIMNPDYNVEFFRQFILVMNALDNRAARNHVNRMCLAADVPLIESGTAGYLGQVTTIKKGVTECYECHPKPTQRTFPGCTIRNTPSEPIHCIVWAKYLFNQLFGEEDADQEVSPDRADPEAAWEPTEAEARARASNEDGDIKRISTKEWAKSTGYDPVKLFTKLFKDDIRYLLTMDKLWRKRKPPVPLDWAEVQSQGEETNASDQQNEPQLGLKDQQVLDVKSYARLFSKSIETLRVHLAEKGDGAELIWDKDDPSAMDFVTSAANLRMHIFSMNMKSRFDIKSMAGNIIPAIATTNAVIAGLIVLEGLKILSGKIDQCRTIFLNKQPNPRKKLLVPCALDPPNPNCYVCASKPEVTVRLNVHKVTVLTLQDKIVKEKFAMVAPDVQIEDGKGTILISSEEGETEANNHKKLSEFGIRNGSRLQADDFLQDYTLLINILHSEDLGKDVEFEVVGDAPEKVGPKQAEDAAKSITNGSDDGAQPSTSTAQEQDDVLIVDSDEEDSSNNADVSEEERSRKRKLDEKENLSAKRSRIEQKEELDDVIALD
Potassium channel subfamily K member 3 (Rattus norvegicus, UniProt O54912), sequence (O54912 whole entry, the tested form may be a part): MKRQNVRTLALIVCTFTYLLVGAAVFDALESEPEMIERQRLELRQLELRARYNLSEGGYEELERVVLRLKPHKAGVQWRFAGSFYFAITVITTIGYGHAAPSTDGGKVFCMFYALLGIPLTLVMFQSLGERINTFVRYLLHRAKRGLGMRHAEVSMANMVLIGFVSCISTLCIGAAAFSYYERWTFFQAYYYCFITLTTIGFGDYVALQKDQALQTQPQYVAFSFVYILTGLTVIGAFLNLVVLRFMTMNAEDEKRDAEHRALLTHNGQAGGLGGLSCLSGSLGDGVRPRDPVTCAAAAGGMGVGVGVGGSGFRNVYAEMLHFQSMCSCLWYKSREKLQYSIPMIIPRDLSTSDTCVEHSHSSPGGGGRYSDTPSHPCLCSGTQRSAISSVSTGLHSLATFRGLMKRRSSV

CCN1CCN(C(c2nc3ncc([N+](=O)[O-])cc3c(=O)n2-c2ccccc2)C(c2nc3ncc([N+](=O)[O-])cc3c(=O)n2-c2ccccc2)N2CCN(CC)CC2)CC1 (stereo unspecified)
IC50 [1]: 6.57 µM (active)

CN1CCN(C(=O)c2cccc(-c3cnc4cnc(-c5ccccc5Oc5ccccc5)cn34)c2)CC1
IC50 [2]: 1.72 µM (active) | AC50 [3]: 47.8 µM (active) | AC50 [4]: > 52 µM (inactive) | AC50 [5]: 5.86 µM (active)

CCOc1ccccc1NC(=O)c1cccc(NC(=O)c2ccccc2)c1
IC50 [6]: 2.14 µM (active) | IC50 [7]: 1.43 µM (active) | IC50 [8]: 0.06 µM (active) | IC50 [9]: 0.121 µM (active)

O=C(Nc1ccc(F)cc1)N1CC(=O)N2[C@@H](CO)[C@H](c3ccc(-c4ccc(F)cc4)cc3)[C@@H]2C1
AC50 [10]: 6.32 µM (active) | AC50 [11]: 36.7 µM (active) | AC50 [12]: 34.5 µM (active) | AC50 [13]: 18.1 µM (active) | AC50 [14]: 25.6 µM (active)

CC(C(=O)Nc1ccncc1)N(c1ccccc1Cl)S(C)(=O)=O (stereo unspecified)
EC50 [15]: > 30 µM (inactive)

O=c1c2ccccc2oc2cc(-c3ccc(CN4CCOCC4)cc3)ccc12
AC50 [16]: 26 µM (active)

OC[C@@H]1CN(Cc2ccc(-c3ccccc3)cc2)C[C@H](n2cnc3c(NC4CCCC4)ncnc32)O1
IC50 [17]: 0.349 µM (active) | EC50 [18]: > 29.9 µM (inactive) | IC50 [19]: 6.28 µM (active)

Cn1cccc1/C=N/NC(=O)c1sc2cc(Cl)ccc2c1Cl
IC50 [20]: > 100 µM (inactive) | AC50 [21]: 43.7 µM (active)
